Reference: patent publication US6914045B2, “Glycopeptide antibiotics” (Wyeth Holdings Corporation, priority 2001, dated 2005)
Numbered stars: 1 amine (or outer) side, 2 acyl side, 3 side chain; on linkers, the order of the positions; unused ones are H or OH. Square brackets hold non-standard residues; d marks the D form. Peptide text beside a SMILES is read from it. ξ: configuration not given here. X1 = N=C1NCC(C(O)C(N[*:1])C(=O)[*:2])N1C1OC(CO)C(O)C(O)C1O; ξEnduracididine(βξ-OH,4'ξ) = N=C1NCC(C(O)C(N)C(=O)O)N1

What was measured:
Assay in all cases: in vitro antibacterial evaluation, MIC by broth dilution
Assay type in all cases: cell-based
Streptococcus sp. = settings: broth dilution, 18 hours at 35° C.
How it was run: (§1)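 Test organisms, which included recent clinical isolates resistant to methicillin, penicillin and/or vancomycin, were inoculated at 5×10^5 CFU/mL into Muller-Hinton II […] containing antibiotic at 64-0.06 μg/mL. Minimum inhibitory concentrations were then read as the lowest level inhibiting growth.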

Staphylococcus sp. = settings: broth dilution, 18 hours at 35° C.
How it was run: as §1

Escherichia coli = settings: 18 hours at 35° C.
How it was run: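 Read-out: the lowest concentration at which the test strain fails to grow. Serial dilutions (64-0.06 μg/mL) in Muller-Hinton II […], 5×10^5 CFU/mL inoculum, NCCLS M7-A2 procedure.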

Enterococcus sp. = settings: broth dilution, 18 hours at 35° C.
How it was run: as §1

N=C1NCC(C(O)C2NC(=O)C(Cc3ccc(O)cc3)NC(=O)C(Cc3ccccc3)NC(=O)CNC(=O)C(CO)NC(=O)C(C(O)C3CNC(=N)N3C3OC(CO)C(O)C(O)C3O)NC2=O)N1 (stereo not drawn) [Example 279a, Cyclo[glycylphenylalanyltyrosyl-3-(2-iminoimidazolidin-4-yl)seryl-3-(3-hexopyranosyl-2-iminoimidazolidin-4-yl)serylseryl]] (cyclo(GFY[ξEnduracididine(βξ-OH,4'ξ)][X1]S); configuration not given here)
>64 µg/mL: MIC Streptococcus agalactiae (GC 4564) (Streptococcus sp.; strain GC 4564) | MIC Streptococcus pneumoniae (GC 4565) (Streptococcus sp.; strain GC 4565) | MIC Coagulase Negative Staphylococcus (GC 4548) (Staphylococcus sp.) | MIC Coagulase Negative Staphylococcus (GC 4551) (Staphylococcus sp.) | MIC Staphylococcus aureus (ATCC 29213) (Staphylococcus sp.) | MIC Staphylococcus aureus (GC 1131) (Staphylococcus sp.) | MIC Staphylococcus aureus (GC 3051) (Staphylococcus sp.) | MIC Staphylococcus aureus (GC 3053) (Staphylococcus sp.) | MIC Staphylococcus aureus (GC 4541) (Staphylococcus sp.) | MIC Staphylococcus aureus (GC 4542) (Staphylococcus sp.) | MIC Staphylococcus aureus (GC 4544) (Staphylococcus sp.) | MIC Staphylococcus aureus (GC 4545) (Staphylococcus sp.) | MIC Staphylococcus aureus-SMITH (GC 4543) (Staphylococcus sp.) | MIC Staphylococcus aureus (ATCC 29213) (Staphylococcus sp.; strain ATCC 29213) | MIC Staphylococcus aureus (GC 1131) (Staphylococcus sp.; strain GC 1131) | MIC Staphylococcus aureus (GC 3051) (Staphylococcus sp.; strain GC 3051) | MIC Staphylococcus aureus (GC 3053) (Staphylococcus sp.; strain GC 3053) | MIC Staphylococcus aureus (GC 4541) (Staphylococcus sp.; strain GC 4541) | MIC Staphylococcus aureus (GC 4542) (Staphylococcus sp.; strain GC 4542) | MIC Staphylococcus aureus (GC 4544) (Staphylococcus sp.; strain GC 4544) | MIC Staphylococcus aureus (GC 4545) (Staphylococcus sp.; strain GC 4545) | MIC Coagulase Negative Staphylococcus (GC 4548) (Staphylococcus sp.; strain GC 4548) | MIC Coagulase Negative Staphylococcus (GC 4551) (Staphylococcus sp.; strain GC 4551) | MIC Staphylococcus aureus-SMITH (GC 4543) (Staphylococcus sp.; strain SMITH GC 4543) | MIC Enterococcus avium (GC 4558) (Enterococcus sp.; Enterococcus avium (GC 4558)) | MIC Enterococcus faecalis (ATCC 29212) (Enterococcus sp.; Enterococcus faecalis (ATCC 29212)) | MIC Enterococcus faecalis (GC 4553) (Enterococcus sp.; Enterococcus faecalis (GC 4553)) | MIC Enterococcus faecalis (GC 4554) (Enterococcus sp.; Enterococcus faecalis (GC 4554)) | MIC Enterococcus faecalis (GC 6189) (Enterococcus sp.; Enterococcus faecalis (GC 6189)) | MIC Enterococcus faecium (GC 2243) (Enterococcus sp.; Enterococcus faecium (GC 2243)) | MIC Enterococcus faecium (GC 4556) (Enterococcus sp.; Enterococcus faecium (GC 4556)) | MIC Enterococcus faecalis (ATCC 29212) (Enterococcus sp.; strain ATCC 29212) | MIC Enterococcus faecalis (GC 2242) (Enterococcus sp.; strain GC 2242) | MIC Enterococcus faecium (GC 2243) (Enterococcus sp.; strain GC 2243) | MIC Enterococcus faecalis (GC 2691) (Enterococcus sp.; strain GC 2691) | MIC Enterococcus faecalis (GC 3059) (Enterococcus sp.; strain GC 3059) | MIC Enterococcus faecalis (GC 4552) (Enterococcus sp.; strain GC 4552) | MIC Enterococcus faecalis (GC 4553) (Enterococcus sp.; strain GC 4553) | MIC Enterococcus faecalis (GC 4554) (Enterococcus sp.; strain GC 4554) | MIC Enterococcus faecium (GC 4556) (Enterococcus sp.; strain GC 4556) | MIC Enterococcus avium (GC 4558) (Enterococcus sp.; strain GC 4558) | MIC Enterococcus faecalis (GC 6189) (Enterococcus sp.; strain GC 6189)
64 µg/mL: MIC Streptococcus pneumoniae (ATCC 6301) (Streptococcus sp.; strain ATCC 6301) | MIC Streptococcus pneumoniae (GC 1894) (Streptococcus sp.; strain GC 1894) | MIC Streptococcus pyogenes (GC 4563) (Streptococcus sp.; strain GC 4563) | MIC Coagulase Negative Staphylococcus (GC 4547) (Staphylococcus sp.) | MIC Coagulase Negative Staphylococcus (GC 4549) (Staphylococcus sp.) | MIC Coagulase Negative Staphylococcus (GC 6257) (Staphylococcus sp.) | MIC Staphylococcus haemolyticus (GC 4546) (Staphylococcus sp.) | MIC Staphylococcus haemolyticus (GC 4546) (Staphylococcus sp.; strain GC 4546) | MIC Coagulase Negative Staphylococcus (GC 4547) (Staphylococcus sp.; strain GC 4547) | MIC Coagulase Negative Staphylococcus (GC 4549) (Staphylococcus sp.; strain GC 4549) | MIC Coagulase Negative Staphylococcus (GC 6257) (Staphylococcus sp.; strain GC 6257) | MIC Escherichia coli (ATCC 25922) (Escherichia coli; Escherichia coli (ATCC 25922)) | MIC Escherichia coli (GC 4559) (Escherichia coli; Escherichia coli (GC 4559)) | MIC Enterococcus faecium (GC 4557) (Enterococcus sp.; Enterococcus faecium (GC 4557)) | MIC Enterococcus faecium (GC 4557) (Enterococcus sp.; strain GC 4557)
32 µg/mL: MIC Escherichia coli (GC 4560) (Escherichia coli; Escherichia coli (GC 4560))
